Counter-ions that a name gives are not always drawn.
Assays:
[1] = system: type II diabetic patients; assay: Clinical study in type II diabetic patients; type: in vivo, human
Protocol: Using the pharmaceutical composition described in Example 1, a clinical study was conducted in type II diabetic patients under the following conditions.
Test drug and Mode of administration: Every patient orally administered either of a combination selected from the following combination groups (one tablet from each) three times a day just before meals (within 5 minutes before starting meal): • The present invention group: (1)+(4) • Positive control group: (2)+(3) • Positive control group: (3)+(4) • (1) a tablet comprising 10 mg of mitiglinide calcium salt hydrate; • (2) a tablet comprising 0.2 mg of voglibose (chemical name: (+)-1L-[1(OH),2,4,5/3]-5-[2-hydroxy-1-(hydroxymethyl)ethyl]amino-1-C-(hydroxymethyl)-1,2,3,4-cyclohexaneterol); • (3) a placebo tablet of mitiglinide calcium salt hydrate not containing any active ingredient; and • (4) a placebo tablet of voglibose not containing any active ingredient. • Treatment period: 12 weeks • Observation item: The following items were measured before administration, at a certain fixed time after the start of administration and at the completion of administration, and their changes were calculated, or the frequency of adverse drug reactions was calculated, and then evaluated.

healthy male adults = assay: Clinical study on administration timing; type: in vivo, human
Protocol: Administration timing before taking a meal was evaluated in healthy male adults. Used test drugs were a tablet comprising 10 mg of mitiglinide calcium salt hydrate and a placebo tablet. The tablet comprising 10 mg of mitiglinide calcium salt hydrate was administered at 0.5 min, 5 min, 10 min or 30 min before starting meal (Positive group), while the placebo tablet was administered at 0.5 min before starting meal. After administration, blood glucose levels were measured at starting meal and evaluated.

[2] = in comparison with voglibose and placebo

O=C(O)[C@H](CC(=O)N1C[C@H]2CCCC[C@H]2C1)Cc1ccccc1 [mitiglinide calcium salt hydrate, (+)-monocalcium bis[(2S,3a,7a-cis)-α-benzylhexahydro-γ-oxo-2-isoindolinebutyrate] dihydrate]
effect on HbA1C value (in words) ([1]; after 4 weeks after the start of administration, in comparison with voglibose and placebo): significantly lowered HbA1C value
frequencies of hypoglycemic symptoms and gastrointestinal disorders (in words) ([1]; human, in vivo): decreased the frequencies of hypoglycemic symptoms and gastrointestinal disorders
effect on 1 hour and 2 hour values of postprandial plasma glucose (PPG) (in words) [1, 2]: significantly lowered 1 hour and 2 hour values of postprandial plasma glucose (PPG)
effect on early morning fasting plasma glucose (FPG) (in words) [1, 2]: significantly lowered early morning fasting plasma glucose (FPG)
blood glucose level at starting meal (in words) (healthy male adults; administered at 30 minutes before starting meal): notably declined
blood glucose level at starting meal (in words) (healthy male adults; administrated within 10 minutes before starting meal): able to maintain good blood glucose level

OCC(CO)N[C@H]1C[C@](O)(CO)[C@@H](O)[C@H](O)[C@H]1O [voglibose, (+)-1L-[1(OH),2,4,5/3]-5-[2-hydroxy-1-(hydroxymethyl)ethyl]amino-1-C-(hydroxymethyl)-1,2,3,4-cyclohexaneterol, reference compound]
Change in 2 hour value of PPG, mean value ([1]; final evaluation, three times a day just before meals, 12 weeks): -5.1 mg/dL
effect on HbA1C value (in words) ([1]; in comparison with placebo): significantly lowered HbA1C value

— patent US20050267195A1, “Drug composition for blood sugar control” (priority 2002, published 2005)
